Source: patent US20140066469A1, “TREATMENT OF DISEASES ASSOCIATED WITH INFLAMMATION” (Department of Veterans Affairs, priority 2012, published 2014)
Read-outs that look alike come from different tables or passages of the source. Values belong to the compound of their own block, whether it stands above or below them.

Columns and labels:
[1] = tested on: retinal ganglion cell layer (GCL)
Source text: After 3 months, mice were sacrificed, and their eyes were carefully isolated by microdissection. The eyes were fixed in formalin and sectioned to allow visualization of the retina.

[2] = tested on: inflammatory cytokines in OA synovium; experiment: Multiplex cytokine analysis of synovium from DMM joints; assay type: in vivo, C57BL6 (B6) mice; details: HCQ sulfate 100 mg/kg/day or atorvastatin calcium 40 mg/kg/day, 3 months; vs vehicle
Description: FIG. 14. […] 3 months after surgery, the mice were sacrificed and the synovium of the operated joint isolated. The collected synovial membrane tissues were used to generate protein lysates, on which multiplex cytokine analysis was performed using the Luminex System and the Bio-Rad BioPlex 23plex mouse cytokine detection kit. Each sample was run in triplicate. […] (A) Heatmap presenting the relative levels (as compared to mean levels in the vehicle-control treated group). (B) Bar-graph display of mean cytokine levels for the indicated treatment groups.
After 3 months, mice were sacrificed, their joints harvested, and synovial tissue isolated from the joint by microdissection. The synovial tissues were homogenized and centrifuged, and the resulting supernatants were assayed for levels of inflammatory cytokines by using a multiplex bead-based cytokine assay (BioRad Laboratories, Hercules, Calif.).

[3] = oral; cited from earlier work
[4] = Patient case example, LDL cholesterol (Example 14); assay type: in vivo, humans; details: person, baseline 140 mg/dL, over several months
[5] = cited from earlier work
[6] = currently FDA-approved doses; cited from earlier work
[7] = tested on: osteoarthritis (OA) induced by destabilization of the medial meniscus (DMM); experiment: DMM mouse model of OA, histological scoring of stifle joints; assay type: in vivo, C57BL6 (B6) mice; details: Example 1; HCQ sulfate 100 mg/kg/day and/or atorvastatin calcium 40 mg/kg/day, oral gavage, 12 weeks; t test
Description: Experiments were performed under protocols approved by the Stanford University Committee of Animal Research and in accordance with NIH guidelines.

retina = details: cited from earlier work; for ophthalmoscopically visualized loss of retinal pigmented epithelium (eye toxicity): treated humans after 5 years
non-erosive OA = details: general non-erosive human OA; cited from earlier work
[8] = coadministered with HCQ vs methotrexate alone

disarrangement of the GCL ([1]; HCQ sulfate 100 mg/kg/day and/or atorvastatin calcium 40 mg/kg/day, 3 months): no disarrangement
Compound: CC(C)c1c(C(=O)Nc2ccccc2)c(-c2ccccc2)c(-c2ccc(F)cc2)n1CC[C@@H](O)C[C@@H](O)CC(=O)O [Atorvastatin, atorvastatin]
number of nuclei in the GCL (viable retinal ganglion cells) ([1]; 3 months, vs vehicle, two-tailed t test): did not differ | levels of inflammatory cytokines in OA synovium [2]: lower | systemic availability for HMG-CoA reductase activity [3]: approximately 30% | LDL cholesterol [4]: 115 mg/day

Compound: CCN(CCO)CCCC(C)Nc1ccnc2cc(Cl)ccc12 (centres unmarked) [HCQ, hydroxychloroquine]
number of nuclei in the GCL (viable retinal ganglion cells) ([1]; mouse, in vivo): significantly lower | levels of inflammatory cytokines in OA synovium [2]: lower | AUC of HCQ ([5]; between dosing occasions): no significant difference | Oral Bioavailability [6]: 89% | T1/2 [6]: 41 days | Tmax [6]: 0.083 to 0.12 days | Vd [6]: 605 L | Osteophyte score (osteophyte formation) [7]: not as potent | Synovitis score [7]: not as potent | retinal toxicity (retina; after 5-7 years of use): ~1% | prevalence of retinal toxicity (retina; conventional doses of HCQ (400 mg/day common)): 6.8 users per 1,000 | clinically apparent eye toxicity (retina; patients): less than 1% | ophthalmoscopically visualized loss of retinal pigmented epithelium (eye toxicity) (retina): 1% | physician discontinuation for earlier eye problems (retina; treated patients over 5 years): ~7% | disease-modifying or pain-reducing activity (non-erosive OA): failed to demonstrate

Compound: CCN(CC)CCCC(C)Nc1ccnc2cc(Cl)ccc12 (centres unmarked) [chloroquine]
ophthalmoscopically visualized loss of retinal pigmented epithelium (eye toxicity) (retina): considerably higher

Compound: CN(Cc1cnc2nc(N)nc(N)c2n1)c1ccc(C(=O)N[C@@H](CCC(=O)O)C(=O)O)cc1 [methotrexate]
maximum methotrexate concentration (Cmax) [5, 8]: decreased | mean area under the concentration-time curve (AUC) for methotrexate [5, 8]: increased
